Test results as given in patent publication US10844052B2, “LLS compounds for treatment of cancer” (THE REGENTS OF THE UNIVERSITY OF CALIFORNIA, priority 2016, dated 2020).
pIC50: −log10 of the molar value.

Assays:
SKOV3 = test: Anti-cancer activity against ovarian cancer cells SKOV3 (cell killing in solution / in vitro cell proliferation); assay type: cell-based
PC3 = test: In vitro cell proliferation / killing assay on PC3 prostate cancer cells; assay type: cell-based; conditions: Homo sapiens, PC-3
Method: Biotinylated LLS2 was synthesized in solution and loaded it onto a streptavidin-coated plate. The biotinylated LLS2 immobilized on the plate killed approximately 21% of SKOV3 ovarian cancer cells at 100 μM loading, 16% at 50 μM and 14% at 25 μM (FIG. 4). The killing effect of the LLS2 compound was also tested in solution. […] In addition, LLS2 can kill pancreatic cancer cell line XPA3, prostate cancer cell line PC3, colon cancer cell line HT29, breast cancer cell line MCF7 and lung cancer cell line A549 (FIG. 4).

[1] = tested on: PC3 prostate cancer cells; test: Cell viability of prostate cancer PC3 cells after 72 hours treatment; assay type: cell-based; conditions: Homo sapiens
Method: Effects of compounds LLS42-LLS80 on the viability of PC3 prostate cancer cells after 72 hours of treatment are shown in Table 2 below: […]

[2] = tested on: 22RV1 prostate cancer cells; test: Cell viability of prostate cancer 22RV1 cells after 72 hours treatment; assay type: cell-based; conditions: Homo sapiens
PC3 tumor = test: In vivo efficacy study of LLS30 on PC3 tumor
[3] = tested on: sNF96.2 malignant peripheral nerve sheath tumor (MPNST) cells; test: Cytotoxicity against sNF96.2 MPNST cells; assay type: cell-based
Method: (§1) The biochemical and biological effects of LLS30 on sNF96.2 and sNF2.2 malignant peripheral nerve sheath tumor (MPNST) cells were evaluated.

[4] = tested on: sNF2.2 malignant peripheral nerve sheath tumor (MPNST) cells; test: Cytotoxicity and PTX combination on sNF2.2 MPNST cells; assay type: cell-based
Method: as §1

ERK phosphorylation = test: Phosphorylation of ERK / MEK/ERK pathway in MPNST cells; assay type: cell-based
Method: (b) LLS30 exerts death on MPNST cells.
as §1

[5] = Combination of LLS30 with Enzalutamide; assay type: cell-based

CBC, platelets, liver function tests and renal panel (PC3 tumor; after 4 courses of treatment): remained within normal limits
Structure (SMILES): NC(=O)CC(NCc1ccc(Cl)c(Cl)c1)c1ccc2c(c1)nc(-c1ccc(N(CCO)CCO)cc1)n2Cc1ccc(Cl)c(Cl)c1 (stereo not shown) [LLS30, 3-(2-(4-(bis(2-hydroxyethyl)amino)phenyl)-1-(3,4-dichlorobenzyl)-1H-benzo[d]imidazol-5-yl)-3-((3,4-dichlorobenzyl)amino)propanamide]
IC50 (SKOV3; Homo sapiens, SK-OV-3, ovarian cancer cells SKOV3): 10.2 µM
potency relative to LLS2 (SKOV3; in vitro cell proliferation assays): about 2 fold
pIC50 (PC3): 5.04
viability at 2.5 µM ([1]; PC-3, 2.5 μM): 100%
viability at 5 µM ([1]; PC-3, 5 μM): 95%
viability at 10 µM ([1]; PC-3, 10 μM): 73%
viability at 20 µM ([1]; PC-3, 20 μM): 10%
viability at 2.5 µM ([2]; 2.5 μM): 47%
viability at 5 µM ([2]; 5 μM): 3%
viability at 10 µM ([2]; 10 μM): 0%
growth of PC3 tumor (PC3 tumor; 10 mg/kg, i.v. q3d×4): significantly suppressed
Ki-67 in tumor (PC3 tumor; LLS30-treated tumor): down-regulated
cleaved caspase-3 in tumor (PC3 tumor; LLS30-treated tumor): more cleaved caspase-3 positive cells
PC3 tumor response, combination with PTX (PC3 tumor; LLS30 with PTX, i.v. q3d×4): tumor regression
histological analysis of the resected tumor (PC3 tumor; necrotic cells): many necrotic cells were present
pIC50 [3]: 4.80
pIC50 [4]: 4.59
C.I. (combination index) with PTX ([4]; LLS30 with PTX): 0.1
MEK/ERK pathway (ERK phosphorylation; 2 μM, MPNST cells (FIG. 12 legend)): suppresses
Phosphorylation of ERK (ERK phosphorylation; 24 hrs treatment, 25 μM, MPNST cells): totally suppressed
anti-cancer effect in combination with Enzalutamide [5]: synergistic anti-cancer effect
